Data taken from patent US10858335B2 (Rigel Pharmaceuticals, Inc., priority 2014, dated 2020).

Test system: GDF8 signaling (p-SMAD-3 (Ser423/425))
Assay: AlphaScreen SureFire SMAD3 (p-Ser423/425) assay, GDF8-stimulated cells (GDF pSMAD)
Format: cell-based
Details: Mus musculus, MPC-11, MPC11; GDF8-stimulated; p-SMAD3 AlphaScreen; read-out: GDF pSMAD (MPC11) (inhibition of GDF8 signaling)

| IC50 [nM] | Compound |
| --- | --- |
| 253 | CNc1ncnc2ccc(-c3cccnc3-c3ccc(F)c(Cl)c3)cc12 [compound 886, 6-(2-(3-Chloro-4-fluorophenyl)pyridin-3-yl)-N-methylquinazolin-4-amine] |
| 2360 | Fc1ccc(-c2ncccc2-c2ccc3ncsc3c2)c(F)c1 [compound 665, 6-(2-(2,4-Difluorophenyl)pyridin-3-yl)benzo[d]thiazole] |
| 58.8 | Fc1ccc(-c2ncccc2-c2ccc3ncc(-c4ncc[nH]4)n3c2)cc1Cl [compound 845, 6-(2-(3-Chloro-4-fluorophenyl)pyridin-3-yl)-3-(1H-imidazol-2-yl)imidazo[1,2-a]pyridine] |
| 319 | Cc1cc(-c2ncccc2-c2ccc3ncc(C(=O)NCCCN4CCOCC4)n3c2)ccc1F [compound 609, 6-(2-(4-Fluoro-3-methylphenyl)pyridin-3-yl)-N-(3-morpholinopropyl)imidazo[1,2-a]pyridine-3-carboxamide] |
| 1380 | Cc1cc(-c2ncccc2-c2ccc3nccnc3n2)ccc1F [compound 738, 6-(2-(4-Fluoro-3-methylphenyl)pyridin-3-yl)pyrido[2,3-b]pyrazine] |
| 7940 | [2H]C([2H])([2H])c1cccc(-c2ncccc2-c2ccc3nccnc3c2)c1 [compound 605, 6-(2-(3-(Methyl-d3)phenyl)pyridin-3-yl)quinoxaline] |
| 340 | Cc1cc(-c2ncccc2-c2ccc3c(N)n[nH]c3c2)ccc1F [compound 786, 6-(2-(4-Fluoro-3-methylphenyl)pyridin-3-yl)-1H-indazol-3-amine] |
| 951 | N#Cc1cnc2ccc(-c3cccnc3-c3ccc(F)c(Cl)c3)nn12 [compound 948, 6-(2-(3-Chloro-4-fluorophenyl)pyridin-3-yl)imidazo[1,2-b]pyridazine-3-carbonitrile] |
| 558 | Fc1cc(F)c(-c2ncccc2-c2ccn3nccc3n2)cc1F [compound 915, 5-(2-(2,4,5-Trifluorophenyl)pyridin-3-yl)pyrazolo[1,5-a]pyrimidine] |

The next lines start with the compound.

| Compound | IC50 [nM] |
| --- | --- |
| FC(F)(F)c1cccc(-c2ncccc2-c2ccc3ncccc3n2)c1 [compound 538, 2-(2-(3-(Trifluoromethyl)phenyl)pyridin-3-yl)-1,5-naphthyridine] | 474 |
| Cc1cc(-c2ncccc2-c2ccc3nccn3c2)ccc1F [Compound 165, 6-(2-(4-Fluoro-3-methylphenyl)pyridin-3-yl)imidazo[1,2-a]pyridine] | 265 |
| CCn1cnc2ccc(-c3cccnc3-c3cccc(C)c3)cc21 [Compound 43, 1-Ethyl-6-(2-m-tolylpyridin-3-yl)-1H-benzo[d]imidazole] | 1620 |
| COc1cc(-c2cnc3ccc(-c4cccnc4-c4cccc(C)c4)cn23)cc(OC)c1OC [compound 578, 6-(2-(m-Tolyl)pyridin-3-yl)-3-(3,4,5-trimethoxyphenyl)imidazo[1,2-a]pyridine] | 2230 |
| COc1cc(-c2ncccc2-c2ccc3ncnc(N)c3c2)c(F)cc1F [compound 502, 6-(2-(2,4-Difluoro-5-methoxyphenyl)pyridin-3-yl)quinazolin-4-amine] | 563 |
| Nc1ncnc2ccc(-c3cccnc3-c3cc(F)ccc3F)cc12 [compound 454, 6-(2-(2,5-Difluorophenyl)pyridin-3-yl)quinazolin-4-amine] | 926 |
| N#Cc1cccc(-c2ncccc2-c2ccc3[nH]ncc3c2)c1 [Compound 112, 3-(3-(1H-Indazol-5-yl)pyridin-2-yl)benzonitrile] | 273 |
| Cc1cc(-c2ncc(NCc3ccc(N4CCC(O)CC4)cc3)cc2-c2ccc3ncsc3c2)ccc1F [compound 374, 1-(4-(((5-(Benzo[d]thiazol-6-yl)-6-(4-fluoro-3-methylphenyl)pyridin-3-yl)amino)methyl)phenyl)piperidin-4-ol] | 495 |
| Cc1cc(-c2ncc(NCc3ccc(N4CCOCC4)cc3)cc2-c2ccc3ncsc3c2)ccc1F [compound 353, 5-(Benzo[d]thiazol-6-yl)-6-(4-fluoro-3-methylphenyl)-N-(4-morpholinobenzyl)pyridin-3-amine] | 689 |
